Test results as given in patent US12312359B2 (Vitae Pharmaceuticals, LLC, priority 2016, dated 2025).

Experiments:
[1] = test system: human acute monocytic leukemia cell line MV-4-11; test: Assay 2: cell proliferation assay (ATP quantitation, CellTiter-Glo), MV-4-11; assay type: cell-based; settings: MV-4-11 cells
Outline: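 Read-out is CellTiter-Glo luminescence quantifying ATP. Compound exposure lasted 72 h at 37° C., 5% CO2, with 1.67×10^4 MV-4-11 cells per well in 10% FBS medium, alongside HL-60 toxicity-control cells.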

[2] = target: T1, biotinylated wild-type menin and MLL-AF9 fusion protein (menin/MLL binding) (Homo sapiens, UniProt O00255); test: Assay 1: menin/MLL binding AlphaLISA assay, wild-type menin; settings: Table 30; column head does not say wild-type or mutated menin
T1 construct: made in house; host or cells: menin: E. coli; MLL-AF9-FLAG: HEK293 cells, used as cleared lysate
T1 sequence (O00255 1-610): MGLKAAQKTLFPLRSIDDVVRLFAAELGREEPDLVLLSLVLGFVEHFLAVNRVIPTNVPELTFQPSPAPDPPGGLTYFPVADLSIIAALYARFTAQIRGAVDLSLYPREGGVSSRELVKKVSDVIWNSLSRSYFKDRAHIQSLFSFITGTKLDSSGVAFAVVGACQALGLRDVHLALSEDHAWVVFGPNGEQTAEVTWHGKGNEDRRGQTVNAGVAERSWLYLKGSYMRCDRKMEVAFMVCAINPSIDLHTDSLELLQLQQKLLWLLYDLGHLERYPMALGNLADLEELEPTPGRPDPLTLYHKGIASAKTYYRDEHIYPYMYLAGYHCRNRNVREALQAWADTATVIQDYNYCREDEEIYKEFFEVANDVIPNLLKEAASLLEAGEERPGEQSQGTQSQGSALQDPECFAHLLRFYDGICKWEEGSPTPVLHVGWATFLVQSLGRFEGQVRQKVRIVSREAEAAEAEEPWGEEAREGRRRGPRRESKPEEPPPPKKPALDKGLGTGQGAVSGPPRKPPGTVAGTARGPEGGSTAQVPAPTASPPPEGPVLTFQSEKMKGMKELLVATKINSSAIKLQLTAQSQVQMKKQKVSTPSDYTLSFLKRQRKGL
Outline: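 Compound was preincubated 30 min at room temperature with biotinylated menin (5 nM) and MLL-AF9-FLAG lysate from HEK293 cells, pH 7.4 buffer with 5% DMSO and DTT. Bead-based Alpha signal after 60 min with streptavidin donor and anti-FLAG acceptor beads; four-parameter logistic fit gave IC50.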

| Compound | EC50 ([1]; Homo sapiens, MV4-11, 72 h) | IC50 [2] | EC50 ([1]; 72 h) |
| --- | --- | --- | --- |
| CC(C)c1ncncc1-c1cc(F)ccc1Oc1cncnc1N1CC2(CCC(NC(C)(C)C)C2)C1 (centres unmarked) [Example 96, N-(tert-butyl)-2-(5-(4-fluoro-2-(4-isopropylpyrimidin-5-yl)phenoxy)pyrimidin-4-yl)-2-azaspiro[3.4]octan-6-amine] | 100 to 1000 nM | < 100 nM | – |
| CC(C)C(=O)N(C)c1cc(F)ccc1Oc1cncnc1N1CC2(CN(CC[C@H]3CC[C@H](NC(=O)OC(C)(C)C)CC3)C2)C1 [Example 138, tert-butyl ((1r,4r)-4-(2-(6-(5-(4-fluoro-2-(N-methyl-isobutyramido)phenoxy)pyrimidin-4-yl)-2,6-diazaspiro [3.3]heptan-2-yl)ethyl)cyclohexyl)carbamate] | < 100 nM | < 100 nM | – |
| CC(C)c1ncncc1-c1cc(F)ccc1Oc1cncnc1N1CC2(CN(CC3CCCC(F)(F)C3)C2)C1 (centres unmarked) [Example 232, 2-((3,3-difluorocyclohexyl)methyl)-6-(5-(4-fluoro-2-(4-isopropylpyrimidin-5-yl)phenoxy)pyrimidin-4-yl)-2,6-diazaspiro[3.3] heptane] | < 100 nM | < 100 nM | – |
| CC(C)N(C(=O)c1cc(F)ccc1Oc1cncnc1N1CC2(CN(CC3CCOCC3)C2)C1)C(C)C [Example 112, 5-fluoro-N,N-diisopropyl-2-((4-(6-((tetrahydro-2H-pyran-4-yl)methyl)-2,6-diazaspiro[3.3]heptan-2-yl)pyrimidin-5-yl)oxy)benzamide] | < 100 nM | < 100 nM | – |
| 2-((4-(7-(((1r,4r)-4- (3,3- dimethylureido)cyclo- hexyl) methyl)- 2,7-diazaspiro [3.5]nonan-2- yl)pyrimidin-5- yl)oxy)-5-fluoro- N,N-diisopropyl benzamide [Example 97] | – | < 100 nM | 100 to 1000 nM |
| CC(C)c1ncsc1-c1cc(F)ccc1Oc1cncnc1N1CCC2(CCN(Cc3ccc4[nH]c(=O)[nH]c4c3)C2)C1 (centres unmarked) [Example 224, 5-((7-(5-(4-fluoro-2-(4-isopropylthiazol-5-yl)phenoxy)pyrimidin-4-yl)-2,7-diazaspiro[4.4]nonan-2-yl)methyl)-1,3-dihydro-2H-benzo[d]imidazol-2-one] | < 100 nM | < 100 nM | – |
| CC(C)c1ncncc1-c1cc(F)ccc1Oc1cncnc1N1CC2(CC(NCC34CC(C#N)(C3)C4)C2)C1 [Example 118, 3-(((2-(5-(4-fluoro-2-(4-isopropylpyrimidin-5-yl)phenoxy)pyrimidin-4-yl)-2-azaspiro[3.3]heptan-6-yl)amino)methyl)bi-cyclo[1.1.1]pentane-1-carbonitrile] | 100 to 1000 nM | < 100 nM | – |
| CC(C)N(C)C(=O)c1cc(F)ccc1Oc1cncnc1N1CCC2(CCN(Cc3ccc4cn[nH]c4c3)C2)C1 (centres unmarked) [Example 145, 2-((4-(7-((1H-indazol-6-yl)methyl)-2,7-diazaspiro[4.4]nonan-2-yl)pyrimidin-5-yl)oxy)-5-fluoro-N-isopropyl-N-methylbenzamide] | 100 to 1000 nM | < 100 nM | – |
| CC(C)c1ncncc1-c1cc(F)ccc1Oc1cncnc1N1CCC2(CCN(Cc3ccc4[nH]c(=O)[nH]c4c3)C2)C1 (single isomer, unassigned) [Example 160A, 5-((7-(5-(4-fluoro-2-(4-isopropylpyrimidin-5-yl)phenoxy)pyrimidin-4-yl)-2,7-diazaspiro[4.4]nonan-2-yl)methyl)-1,3-dihydro-2H-benzo[d]imidazol-2-one] | < 100 nM | < 100 nM | – |
| CCN(C(=O)C(C)C)c1cc(F)ccc1Oc1cncnc1N1CC2(CCN(C[C@H]3CC[C@H](NS(C)(=O)=O)CC3)CC2)C1 [Example 86, N-ethyl-N-(5-fluoro-2-((4-(7-(((1r,4r)-4-(methylsulfonamido)cyclohexyl)methyl)-2,7-diazaspiro [3.5]nonan-2-yl)pyrimidin-5-yl)oxy)phenyl)iso-butyramide] | < 100 nM | < 100 nM | – |
| CC(C)N(C)C(=O)c1cc(F)ccc1Oc1cncnc1N1CCC2(CCN(Cc3c[nH]c4cc(C#N)ccc34)C2)C1 (centres unmarked) [Example 194, 2-((4-(7-((6-cyano-1H-indol-3-yl)methyl)-2,7-diazaspiro[4.4]nonan-2-yl)pyrimidin-5-yl)oxy)-5-fluoro-N-isopropyl-N-methylbenzamide] | 100 to 1000 nM | < 100 nM | – |
| N#Cc1ccc(-c2cc(F)ccc2Oc2cncnc2N2CCC3(CCN(Cc4ccc5c(c4)CC(=O)N5)C3)C2)c(C2CC2)c1 (centres unmarked) [Example 204, 2-cyclopropyl-5′-fluoro-2′-((4-(7-((2-oxoindolin-5-yl)methyl)-2,7-diazaspiro[4.4]nonan-2-yl)pyrimidin-5-yl)oxy)-[1,1′-biphenyl]-4-carbonitrile] | 100 to 1000 nM | < 100 nM | – |
| COC(=O)N(C)c1cc(F)ccc1Oc1cncnc1N1CCC2(CCN(Cc3ccc4[nH]c(=O)[nH]c4c3)C2)C1 (centres unmarked) [Example 207, methyl (5-fluoro-2-((4-(7-((2-oxo-2,3-dihydro-1H-benzo[d]imidazol-5-yl)methyl)-2,7-diazaspiro[4.4]nonan-2-yl)pyrimidin-5-yl)oxy)phenyl) (methyl)carbamate] | 100 to 1000 nM | < 100 nM | – |
| CCC(C)(OC)c1cc(F)ccc1Oc1cncnc1N1CCC2(CCN(Cc3ccc4[nH]c(=O)[nH]c4c3)C2)C1 (centres unmarked) [Example 33, 5-((7-(5-(4-fluoro-2-(2-methoxybutan-2-yl)phenoxy)pyrimidin-4-yl)-2,7-diazaspiro[4.4]nonan-2-yl)methyl)-1,3-dihydro-2H-benzo[d]imidazol-2-one] | 100 to 1000 nM | < 100 nM | – |
| CC(C)c1ncncc1-c1cc(F)ccc1Oc1cncnc1N1CCC2(CCN(CC(C)(C)O)C2)C1 (centres unmarked) [Example 176, 1-(7-(5-(4-fluoro-2-(4-isopropylpyrimidin-5-yl)phenoxy)pyrimidin-4-yl)-2,7-diazaspiro[4.4]nonan-2-yl)-2-methylpropan-2-ol] | ≥ 1000 nM | < 100 nM | – |
| N#Cc1ccc(-c2cc(F)ccc2Oc2cncnc2N2CCC3(CCN(Cc4ccc(N5CCCC5=O)cc4)C3)C2)c(C2CC2)c1 (centres unmarked) [Example 195, 2-cyclopropyl-5′-fluoro-2′-((4-(7-(4-(2-oxopyrrolidin-1-yl)benzyl)-2,7-diazaspiro [4.4]nonan-2-yl)pyrimidin-5-yl)oxy)-[1,1′-biphenyl]-4-carbonitrile] | 100 to 1000 nM | < 100 nM | – |
| Cn1c(-c2cc(F)ccc2Oc2cncnc2N2CC3(CCN(C[C@H]4CC[C@H](NC(=O)C(F)(F)F)CC4)CC3)C2)c(C2CC2)ccc1=O [Example 79, N-((1r,4r)-4-((2-(5-(2-(3-cyclopropyl-1-methyl-6-oxo-1,6-dihydropyridin-2-yl)-4-fluorophenoxy)pyrimidin-4-yl)-2,7-diazaspiro[3.5]nonan-7-yl)methyl)cyclohexyl)-2,2,2-trifluoroacetamide] | < 100 nM | < 100 nM | – |
| CC(C)N(C(=O)c1cc(F)ccc1Nc1cncnc1N1CCC2(CC1)CN(CC(C)(C)O)C2)C(C)C [Example 16, 5-fluoro-2-((4-(2-(2-hydroxy-2-methylpropyl)-2,7-diazaspiro[3.5]nonan-7-yl)pyrimidin-5-yl)amino)-N,N-diisopropylbenzamide] | 100 to 1000 nM | < 100 nM | – |
| CC(C)N(C(=O)c1cc(F)ccc1Oc1cncnc1N1CC2(CCN(CC3CCOCC3)C2)C1)C(C)C [Example 111, 5-fluoro-N,N-diisopropyl-2-((4-(6-((tetrahydro-2H-pyran-4-yl)methyl)-2,6-diazaspiro[3.4]octan-2-yl)pyrimidin-5-yl)oxy)benzamide] | < 100 nM | < 100 nM | – |
| CC(C)c1ncncc1-c1cc(F)ccc1Oc1cncnc1N1CCC2(CN(C(=O)Cc3ccc(C#N)cc3)C2)C1 [Example 130, 4-(2-(6-(5-(4-fluoro-2-(4-isopropylpyrimidin-5-yl)phenoxy)pyrimidin-4-yl)-2,6-diazaspiro[3.4]octan-2-yl)-2-oxoethyl)benzonitrile] | 100 to 1000 nM | < 100 nM | – |
| CCN(C(=O)C(C)C)c1cc(F)ccc1Oc1cncnc1N1CC2(CCN(CC3CCCCC3)C2)C1 [Example 158, N-(2-((4-(6-(cyclohexylmethyl)-2,6-diazaspiro[3.4]octan-2-yl)pyrimidin-5-yl)oxy)-5-fluorophenyl)-N-ethylisobutyramide] | 100 to 1000 nM | < 100 nM | – |
| CC(C)N(C(=O)c1cc(F)ccc1Oc1cncnc1N1CC2(CCN(C(=O)Cc3ccc(C#N)cc3)C2)C1)C(C)C [Example 113, 2-((4-(6-(2-(4-cyanophenyl)acetyl)-2,6-diazaspiro[3.4]octan-2-yl)pyrimidin-5-yl)oxy)-5-fluoro-N,N-diisopropylbenzamide] | < 100 nM | < 100 nM | – |
